# Assay: Release of doxorubicin from OPA215 vesicles, dialysis cassette in PBS, 485 nm absorption
# Format: physicochemical
# Conditions: 37° C., within 2 hours
# Protocol: The Dox-loaded vesicles were centrifuged at 40° C. to remove excess free Dox and resuspended into a 0.320 osM PBS solution at ° C. Then, 3 ml of the aforementioned solution was injected into a dialysis cassette (molecular weight cut-off 3000 g mol^−1), and dialyzed against the PBS solution at 37° C. for 6 hours to ensure complete removal of any free Dox outside of the vesicles. After the initial aliquot was taken, the cassette was immersed in a 300 ml PBS solution at 37° and 27° C., respectively, for monitoring the 485 nm absorption peak of Dox using UV-vis spectrometry. At time intervals, a 3 ml aliquot of the PBS solution was sampled from the external solution of the dialysis cassette.
# To study thermally triggered release of Dox from the OPA215 vesicles in PBS solutions, vesicles and control samples were entrapped in dialysis cassettes and sampled in external PBS solutions for the 485 nm absorption peak of Dox at different time intervals (FIG. 9).
structure (smiles),measurement,value
"COc1cccc2c1C(=O)c1c(O)c3c(c(O)c1C2=O)C[C@@](O)(C(=O)CO)C[C@@H]3O[C@H]1C[C@H](N)[C@H](O)[C@H](C)O1 [free Dox, Doxorubicin]",loss of Dox during dialysis,> 70%
